Earlier results in patent US20060287520A1, “Synthesis of salinosporamide A and analogues thereof” (priority 2005, published 2006).

What was measured:
[1] = read-out: in vitro cytotoxicity IC50; background statement; cell line not given
20S proteasome = details: times more potent than omuralide, same molecular target (20S proteasome)

## C[C@@]12OC(=O)[C@]1([C@@H](O)[C@@H]1C=CCCC1)NC(=O)[C@@H]2CCCl [Salinosporamide A]
[1]
  IC50: ~10 nM
20S proteasome
  potency relative to omuralide (2): approximately 35 times
